Here are results for two molecules from US20140329177A1, “CYCLIC COMPOUND, METHOD FOR PRODUCING SAME, RADIATION-SENSITIVE COMPOSITION, AND RESIST PATTERN FORMATION METHOD” (MITSUBISHI GAS CHEMICAL COMPANY, INC., priority 2011, published 2014).

SMILES strings stand for the structures.

The nature of the data set: Solubility test of compound in safe solvent. The format is physicochemical. Particulars: 23° C.; for dissolution amount in CHN: cyclohexanone (CHN); for dissolution amount in PGME: propylene glycol monomethyl ether (PGME). As for the experimental part: The dissolution amounts of compounds obtained in the above synthesis examples 1 to 4 and syntheses 1 and 2 in propylene glycol monomethyl ether (PGME) and cyclohexanone (CHN) were evaluated as follows.
A: 5.0% by mass≦dissolution amount B: 3.0% by mass≦dissolution amount<5.0% by mass C: dissolution amount<3.0% by mass
dissolution amount (% by mass)=mass (g) of compound dissolved in 100 g of solvent of 23° C./(100 g of mass of solvent+mass (g) of compound dissolved in 100 g of solvent of 23° C.)×100

For `Oc1cc(O)c2cc1C(c1ccc(C3CCCCC3)cc1)c1cc(c(O)cc1O)C(c1ccc(C3CCCCC3)cc1)c1cc(c(O)cc1O)C(c1ccc(C3CCCCC3)cc1)c1cc(c(O)cc1O)C2c1ccc(C2CCCCC2)cc1` (stereo not shown) [CR-2A], the “dissolution amount in CHN” value is “B (3.0% by mass≦dissolution amount<5.0% by mass)” and the “dissolution amount in PGME” value is “B (3.0% by mass≦dissolution amount<5.0% by mass)”.

`CC(C)c1ccc(C2c3cc(c(O)cc3O)C(c3ccc(C(C)C)cc3)c3cc(c(O)cc3O)C(c3ccc(C(C)C)cc3)c3cc(c(O)cc3O)C(c3ccc(C(C)C)cc3)c3cc2c(O)cc3O)cc1` (stereo not shown) [CR-1A]: the “dissolution amount in CHN” value was “C (dissolution amount<3.0% by mass)” and the “dissolution amount in PGME” value was “B (3.0% by mass≦dissolution amount<5.0% by mass)”.
